Values of other authors in patent US20090110646A1, “Product for Treating the Skin and Mucous Membranes, and Relative Method of Preparation” (priority 2005, published 2009).

## O=C(O)C(Cl)(Cl)Cl [TCA, trichloracetic acid]
Solution of TCA at about 30-40% w/w
  depth of dermal necrosis: 0.3-0.5 mm
Solution of TCA in a concentration of less than 25% w/w
  effect on skin: exfoliation of the epidermis
Very concentrated TCA
  time of eschar (crust) until skin renewal: 7 to 10 days
